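Assay format: 96-well plates, 48-hour exposure. GI50 = concentration required for 50% inhibition of growth.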 The source made the active and inactive calls. Rule as the data show it: active = GI50 up to about 1.1 µM and inactive = higher.
Key:
Assay in all cases: DTP human tumour cell line panel, 48 h
[1] = tested on: A549
[2] = tested on: DU-145
[3] = tested on: HCC 2998
[4] = tested on: HOP-62
[5] = tested on: Hs-578T
[6] = tested on: IGROV-1
[7] = tested on: K562
[8] = tested on: LOX IMVI
[9] = tested on: MDA-MB-435
[10] = tested on: NCI-H460
[11] = tested on: NCI-H522
[12] = tested on: OVCAR-3
[13] = tested on: RPMI-8226
[14] = tested on: SF-268
[15] = tested on: SF-539
[16] = tested on: SK-MEL-28
[17] = tested on: SN12C
[18] = tested on: SNB-75
[19] = tested on: TK-10
[20] = tested on: RXF 393

SMILES | GI50 [1] | GI50 [2] | GI50 [3] | GI50 [4] | GI50 [5] | GI50 [6] | GI50 [7] | GI50 [8] | GI50 [9] | GI50 [10] | GI50 [11] | GI50 [12] | GI50 [13] | GI50 [14] | GI50 [15] | GI50 [16] | GI50 [17] | GI50 [18] | GI50 [19] | GI50 [20]
Cc1nc2c(N3CCCC3)nc(N3CCNCC3)nc2nc1NCc1ccccc1 | 3.88 µM (inactive) | 6.52 µM (inactive) | 1.53 µM (inactive) | 2.94 µM (inactive) | 6.17 µM (inactive) | 3.95 µM (inactive) | 2.81 µM (inactive) | 1.65 µM (inactive) | 2.24 µM (inactive) | 3.56 µM (inactive) | 1.65 µM (inactive) | 2.43 µM (inactive) | 2.11 µM (inactive) | 3.85 µM (inactive) | 2.65 µM (inactive) | 1.95 µM (inactive) | 7.29 µM (inactive) | 0.578 µM (active) | 4.88 µM (inactive) | 
Cc1ccc(C)n2c1nc1cc3ccccc3cc12 | 28.6 µM (inactive) | 51.9 µM (inactive) |  | 21 µM (inactive) | 60.3 µM (inactive) | 23.1 µM (inactive) | 47.2 µM (inactive) |  | 44.8 µM (inactive) |  |  | 25.1 µM (inactive) | 42.5 µM (inactive) | 64 µM (inactive) | 30.7 µM (inactive) | 45 µM (inactive) | 43 µM (inactive) | 17 µM (inactive) | 15.5 µM (inactive) | 12.3 µM (inactive)
CC(=O)N1CCOC12N=NC(C)(C)O2 (configuration not stated) | > 100 µM (inactive) | > 100 µM (inactive) | > 100 µM (inactive) | > 100 µM (inactive) | > 100 µM (inactive) | > 100 µM (inactive) | > 100 µM (inactive) | > 100 µM (inactive) | > 100 µM (inactive) | > 100 µM (inactive) | > 100 µM (inactive) | > 100 µM (inactive) | > 100 µM (inactive) | > 100 µM (inactive) | > 100 µM (inactive) | > 100 µM (inactive) | > 100 µM (inactive) | > 100 µM (inactive) | > 100 µM (inactive) | 
COc1cc2c(c(OC)c1OC)-c1ccc(=O)c(O)cc1[C@@H](NC(C)=O)CC2 [COLCHICEINE] | 27.7 µM (inactive) | 27.6 µM (inactive) | 15.3 µM (inactive) | 24.9 µM (inactive) | 21.3 µM (inactive) | 26.3 µM (inactive) | 15.6 µM (inactive) | 12.6 µM (inactive) | 18.4 µM (inactive) | 12.3 µM (inactive) | 12.2 µM (inactive) | 29.6 µM (inactive) | 11.1 µM (inactive) | 25.7 µM (inactive) | 19.1 µM (inactive) | 42.5 µM (inactive) | 16.8 µM (inactive) | 40.6 µM (inactive) | 37.9 µM (inactive) | 
Cc1ccc(S(=O)(=O)NCCCCC(N)C(=O)O)cc1 (configuration not stated) | > 100 µM (inactive) | > 100 µM (inactive) |  | > 100 µM (inactive) | > 100 µM (inactive) | > 100 µM (inactive) | > 100 µM (inactive) |  | > 100 µM (inactive) | > 100 µM (inactive) | > 100 µM (inactive) | > 100 µM (inactive) | > 100 µM (inactive) | > 100 µM (inactive) | > 100 µM (inactive) | > 100 µM (inactive) | > 100 µM (inactive) | > 100 µM (inactive) |  | > 100 µM (inactive)
COC(=O)C1(C)C=CC(=O)C2(C)C1C(O)C1OC3CC(c4ccoc4)C(C)=C3C1(C)C2CC(=O)O (configuration not stated) | > 100 µM (inactive) | > 100 µM (inactive) | > 100 µM (inactive) |  | > 100 µM (inactive) | > 100 µM (inactive) |  | > 100 µM (inactive) | > 100 µM (inactive) | > 100 µM (inactive) | > 100 µM (inactive) | > 100 µM (inactive) | > 100 µM (inactive) | > 100 µM (inactive) | > 100 µM (inactive) | > 100 µM (inactive) | > 100 µM (inactive) | > 100 µM (inactive) | > 100 µM (inactive) | 

Source: ChEMBL document CHEMBL1201862, “PubChem BioAssay data set” (2004)
